# Results: patent publication US11773086B2, “Fungal modulators” (TRUSTEES OF BOSTON UNIVERSITY, priority 2020, dated 2023)
# Tested on: CDR1 (B9J08_000164) and CDR4-1 (B9J08_000479)
# Assay: RT-qPCR of efflux gene expression
# Format: cell-based, Candida auris
# Details: azoffluxin alone, 3 hours
# Source text: FIGS. 3A-3B, and 4A-4B illustrate azoffluxin increases fluconazole (FLC) bioavailability by inhibiting Cdr1-mediated efflux in C. auris, as described above. FIG. 3A depicts the relative abundance of specific sterols determined in C. auris after an 18-hour treatment with the respective compounds (⋅ indicates combo treatment concentrations) using LC-MS. Values are plotted relative to the internal standard of cholesterol and error bars indicate standard deviation between technical triplicates. Significance was determined by an unpaired student t-test of each condition to untreated, (*) indicates a p-value<0.05 and (**) indicates a p-value<0.01. FIG. 3B depicts the intracellular concentrations of FLC and azoffluxin measured after treatment for 1 hour (conditions as in FIG. 3A) Error bars indicate standard deviation between technical triplicates. Significance was determined by an unpaired student t-test, (**) indicates a p-value<0.01. FIG. 4A depicts the quantified relative expression of a panel of putative efflux pumps in C. auris Ci6684. Expression of CDR1 (B9J08_000164), MDR1 (B9J08_003981), CDR4-1 (B9J08_000479), CDR4-2 (B9J08_002451), SNQ2-1 (B9J08_001125), and SNQ2-2 (B9J08_004452) was measured by RT-qPCR. […] FIG. 4B depicts expression of CDR1 (B9J08_000164) and CDR4-1 (B9J08_000479) measured by quantitative real-time PCR (RT-qPCR). […]
smiles,measurement,value
C=C(C)C[C@@H](O)COc1cc2c(cc1C1(c3cc4c(cc3OC[C@H](O)CC(=C)C)OCO4)C(=O)Nc3cc(F)ccc31)OCO2 [CMLD012336],CDR1 and CDR4-1 transcript levels,concentration-dependent increase
